Laboratory results from patent US20110178168A1, “COUMARIN COMPOUNDS FOR THE TREATMENT OF CARDIOVASCULAR DISEASES AND A PROCESS FOR PREPARING THE SAME” (priority 2008, published 2011).

Legend:
[1] = molecular target: T1, Calreticulin transacetylase (CRTAase) (Homo sapiens, UniProt P27797); experiment: TAase (calreticulin transacetylase) activity; format: biochemical
T1 sequence (P27797 18-417): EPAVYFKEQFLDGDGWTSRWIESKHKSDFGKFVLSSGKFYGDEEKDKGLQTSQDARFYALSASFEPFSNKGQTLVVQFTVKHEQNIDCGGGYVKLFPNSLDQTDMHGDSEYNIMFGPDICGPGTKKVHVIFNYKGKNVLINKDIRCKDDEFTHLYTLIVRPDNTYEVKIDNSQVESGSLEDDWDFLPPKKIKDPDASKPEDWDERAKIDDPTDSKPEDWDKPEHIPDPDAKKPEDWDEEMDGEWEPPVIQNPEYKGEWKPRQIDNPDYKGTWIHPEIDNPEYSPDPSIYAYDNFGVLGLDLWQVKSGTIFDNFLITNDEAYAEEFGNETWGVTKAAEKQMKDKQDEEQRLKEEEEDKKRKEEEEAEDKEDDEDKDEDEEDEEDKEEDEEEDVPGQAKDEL
Text: (§1) Platelet Nitric Oxide Synthase (NOS) is remakably activated by way of acetylation catalyzed by Calreticulin transacetylase (CRTAase) leading to robust enhancement of NO in platelets. Compounds of Formula I enhance NO in platelets. Due to this activity, these compounds enhance the NOS leading to enhancement of platelet NO which contributes to the antiplatelet action. […] They are effective in causing the inhibition of ADP induced as well as collagen induced platelet aggregation both invitro and exvivo.

platelets [2] = experiment: ADP-induced platelet aggregation in vitro (platelet rich plasma); format: cell-based
Text: A. Preparation of Platelet Rich, Plasma for the IN VITRO Studies

platelets [3] = experiment: ADP-induced platelet aggregation ex vivo (platelet rich plasma); format: in vivo
Text: C. Preparation of Platelet Rich Plasma for the EX VIVO Studies

[4] = tested on: intracellular nitric oxide level in platelets; experiment: Enhancement of nitric oxide in platelets; format: cell-based
Text: Nitric oxide is known to mediate a number of pharmacological actions such as vasorelaxation, lowereing of blood pressure and inhibition of platelet aggregation. […] The specific acyl group attached to the coumarin derivative is attributed to the enhancement of intracellular nitric oxide level leading to the inhibition of ADP induced platelet aggregation.
as §1

COC(=O)C(c1ccccc1Cl)N1CCc2sccc2C1 (centres unmarked)
TAase activity (Units) [1]: Nil
ADP-induced platelet aggregation (% inhibition) IN VITRO (platelets [2]): Nil
ADP-induced platelet aggregation (% inhibition) EX VIVO (platelets [3]): 65%
Enhancement of nitric oxide (folds) [4]: Nil

CC(=O)Oc1ccccc1C(=O)O [ASPIRIN, Aspirin]
TAase activity (Units) [1]: Nil
ADP-induced platelet aggregation (% inhibition) IN VITRO (platelets [2]): Nil
ADP-induced platelet aggregation (% inhibition) EX VIVO (platelets [3]): 55%
Enhancement of nitric oxide (folds) [4]: Nil
